Measurements from patent US12140600B2, “Method for measuring activated partial thromboplastin time” (SYSMEX CORPORATION, priority 2019, dated 2024).

Assay: Effect of suppressing precipitation of ellagic acid-metal ion complex (salting out, dynamic light scattering and visual check)
Type: physicochemical
Conditions: for degree of increase in particle size of complex with respect to the increase in salt concentration / precipitation, visually confirmed: additive 100 μM; for degree of increase in particle size of complex with respect to the increase in salt concentration: sodium chloride 10, 50 or 100 mM, FIG. 3; for precipitation, visually confirmed: sodium chloride concentration 100 mM; for precipitation suppressing effect versus additive concentration: additive at various concentrations, FIGS. 4A and 4B
Protocol: In an APTT reagent comprising a metal ion complex of ellagic acid as an activator, when the salt concentration increases, the complex particle size increases by the salting-out effect, and finally precipitation occurs. By utilizing the principle of salting out, the effect of suppressing the precipitation of various additives in ellagic acid-metal ion complex solutions was confirmed.
An ellagic acid-metal ion complex solution was prepared to contain 50 mM HEPES, 8 mM TAPS, and 1% by mass glycine as buffer components, 100 μM ellagic acid, 60 μM zinc chloride, and 50 μM aluminum chloride as a metal ion complex of ellagic acid, and 0.05% ProClin (trademark) 300 (Sigma-Aldrich Co., LLC.) as a preservative. A complex solution comprising each additive at a concentration of 100 μM was obtained by mixing this solution with any one selected from gallic acid, pyrogallol, hydroquinone, 5-methylpyrogallol, resorcinol, or cyclohexanetriol as an additive. As a control, an ellagic acid-metal ion complex solution not comprising an additive was used.
Each complex solution prepared in (1) above was mixed with a 5 M sodium chloride solution to obtain a mixed solution (test group) having a sodium chloride concentration of 10 mM, 50 mM, or 100 mM. The relationship between the salt concentration in each mixed solution and the average particle size of complex was confirmed by a dynamic scattered light method using Zetasizer Nano (Malvern Panalytical Ltd.). The results are illustrated in FIG. 3.
The effect of suppressing precipitation was confirmed in the same manner as in (2) above using the complex solutions containing gallic acid or pyrogallol at various concentrations. The results are illustrated in FIGS. 4A and 4B.

## O=C(O)c1cc(O)c(O)c(O)c1 [gallic acid]
  degree of increase in particle size of complex with respect to the increase in salt concentration: small
  precipitation, visually confirmed: precipitation has not been visually confirmed
  precipitation suppressing effect versus additive concentration: precipitation suppressing effect is observed at all concentrations

## Oc1cccc(O)c1O [pyrogallol]
  degree of increase in particle size of complex with respect to the increase in salt concentration: small
  precipitation, visually confirmed: precipitation has not been visually confirmed
  precipitation suppressing effect versus additive concentration: precipitation suppressing effect is observed at all concentrations
